Data taken from PMC8273159, “In Vivo Behavior of the Antibacterial Peptide Cyclo[RRRWFW], Explored Using a 3-Hydroxychromone-Derived Fluorescent Amino Acid” (Frontiers in Chemistry, 2021).
In brackets after ≈: the same amount, converted by molar mass. Numbered stars: 1 amine (or outer) side, 2 acyl side, 3 side chain; on linkers, the order of the positions; unused ones are H or OH. Square brackets hold non-standard residues; d marks the D form. Peptide text beside a SMILES is read from it. X1 = O=C([C@H](Cc1ccc2oc(-c3ccco3)c(O)c(=O)c2c1)N[*:1])[*:2]

Legend:
[1] = tested on: human erythrocyte suspension; assay: Hemolysis assay (hemoglobin release); assay type: cell-based; details: Tris-HCl pH 7.6, 37°C, 30 min
Description: All chemicals were purchased from Sigma-Aldrich, Iris Biotech or Biosolve and were used without further purification. Ultrapure deionized (MilliQ, Millipore) water was used to prepare aqueous solutions and mixtures. Solvents for peptide purification and optical spectroscopy were of HPLC grade and were degassed before use. Culture media and supplements for animal cells were from Thermo Fisher, those for bacterial culturing were from Becton, and those for zebrafish embryo handling were freshly prepared. Citrate phosphate dextrose-stabilized blood bags with erythrocyte suspensions of healthy donors for hemolysis assays were obtained from the blood bank of the Karlsruhe municipal hospital.
Hemolytic activity was examined using the same serial twofold dilution concentrations as for the MIC assay. […] The tubes were centrifuged at 13,000 rpm for 10 min to pellet the cells, and the absorbance at 540 nm was recorded against a negative control (cells without peptide, accounting for autohaemolysis). The lysis percentage was calculated relative to lysis levels induced by 1% (v/v) Triton X-100. The absorbance measurements were repeated five times, and the averaged values were used.

[2] = tested on: Escherichia coli (DSM 1116); assay type: cell-based; details: DSM 1116, 20 h
Description: (§1) Bacillus spizizenii (DSM 347) and Escherichia coli (DSM 1116) were purchased from the German Collection of Microorganisms and Cell Cultures. The bacterial strains were maintained frozen at −80°C using a bacterial Cryobank System (Mast Diagnostica). To refresh bacterial cells on single glass beads, they were grown overnight in Müller-Hinton (MH) medium, and colonies were obtained by streaking on MH agar. Then, colony cells were used to inoculate MH broth up to OD = 0.02 and grew at 37°C overnight. These overnight cultures were used to inoculate the test culture, which was grown for 3–4 h until it reached exponential growth. HeLa (ECACC 93021013) and HEK293 (ECACC 85120602) cells were purchased from […] and were routinely cultured in Roswell Park Memorial Institute (RPMI) 1640 medium or Dulbecco’s modified Eagle medium (DMEM) supplemented with 10% fetal calf serum (FCS) and 1% penicillin/streptomycin, respectively. Cells were passaged every 2–3 days and used until passage 35. All animal cell types were cultured at 37 °C in a 5% CO2 atmosphere and tested negative for mycoplasma.
(§2) The bacteriostatic activity of the peptides was characterized by determining minimal culture growth inhibitory concentrations (MICs) in planktonic cultures. Serial twofold dilutions of each peptide (in-well concentration range: 128 μg/ml to […]) were prepared in MH broth and aliquoted into round-bottom 96-well microtiter plates (Sarstedt). Each well was inoculated with a standardized inoculum to achieve a final test concentration of approximately 10^6 cells/ml. […] The measurements were repeated twice with three replicates each time.

[3] = tested on: Bacillus spizizenii (DSM 347); assay type: cell-based; details: DSM 347, 20 h
Description: as §1, §2

[4] = Analytical C18 HPLC retention time as measure of overall hydrophobicity; assay type: physicochemical; details: chromatographic, C18 phase (Vydac), water/acetonitrile with 0.1% TFA, 1% B/min gradient, column 40°C; used to assess overall hydrophobicity
Description: The peptides were purified (>95%) by reversed-phase high-performance liquid chromatography (HPLC) employing C18 stationary phase columns (Vydac) and TFA-supplemented (0.1% v/v) water/acetonitrile gradients (4% eluent B/min) without temperature control on a Jasco HPLC system equipped with a diode array detector. Analytical chromatography was performed using the same stationary/mobile phase conditions, employing temperature control (column temperature 40°C) and shallower gradients (1% eluent B/min). All peptides and individual HPLC fractions were characterized by matrix-assisted laser desorption/ionization time-of-flight mass spectrometry (MALDI-TOF MS) using a Bruker Autoflex III instrument in positive reflector detection mode and with α-cyano-4-hydroxycinnamic acid as a matrix. From pure peptide powders, stock solutions were prepared (1 mg/ml) in 30% aqueous acetonitrile and stored at −80°C. For spectroscopy, imaging and bioactivity measurements, aliquots from these solutions were taken a day before the experiment, and peptide samples containing the necessary amount of peptide dry material were obtained by lyophilization overnight.

Question: Which results are given for N=C(N)NCCC[C@@H]1NC(=O)[C@H](CCCNC(=N)N)NC(=O)[C@H](Cc2c[nH]c3ccccc23)NC(=O)[C@H](Cc2ccc3oc(-c4ccco4)c(O)c(=O)c3c2)NC(=O)[C@H](Cc2c[nH]c3ccccc23)NC(=O)[C@H](CCCNC(=N)N)NC1=O [cRW-F^2/FHC] (cyclo(RRRW[X1]W))?
Answer: death of erythrocytes (hemolysis) ([1]; 30 µM peptide, absorbance 540 nm, relative to 1% Triton X-100, five readings averaged): > 50%; hemolytic activity, comparison in words ([1]; human erythrocytes, relative to 1% Triton X-100): the most hemolytic; MIC E. coli [2]: 28.1 µM (≈ 32 µg/mL); MIC B. spizizenii [3]: 14.0 µM (≈ 15.9 µg/mL)

Question: For N=C(N)NCCC[C@@H]1NC(=O)[C@H](CCCNC(=N)N)NC(=O)[C@H](Cc2c[nH]c3ccccc23)NC(=O)[C@H](Cc2ccccc2)NC(=O)[C@H](Cc2ccc3oc(-c4ccco4)c(O)c(=O)c3c2)NC(=O)[C@H](CCCNC(=N)N)NC1=O [cRW-W^1/FHC] (cyclo(FWRRR[X1])), which “MIC E. coli” value [2] is on record?
Answer: The value was 29.1 µM (≈ 32 µg/mL).

Question: What about the “MIC B. spizizenii” value [3] of the same compound?
Answer: Its value is 14.6 µM (≈ 16 µg/mL).

Question: With N=C(N)NCCC[C@@H]1NC(=O)[C@H](CCCNC(=N)N)NC(=O)[C@H](Cc2ccc3oc(-c4ccco4)c(O)c(=O)c3c2)NC(=O)[C@H](Cc2ccccc2)NC(=O)[C@H](Cc2c[nH]c3ccccc23)NC(=O)[C@H](CCCNC(=N)N)NC1=O [cRW-W^3/FHC] (cyclo(F[X1]RRRW)) as the compound, how does the “MIC E. coli” value [2] read?
Answer: The value was 29.1 µM (≈ 32 µg/mL).

Question: What about the “MIC B. spizizenii” value [3] of the same compound?
Answer: Its value is 14.6 µM (≈ 16 µg/mL).

Question: And the “RT (apparent retention time)” value [4]?
Answer: The value was 11 min.

Question: Which “MIC E. coli” value [2] does the source give for N=C(N)NCCC[C@@H]1NC(=O)[C@H](CCCNC(=N)N)NC(=O)[C@H](Cc2c[nH]c3ccccc23)NC(=O)[C@H](Cc2ccccc2)NC(=O)[C@H](Cc2c[nH]c3ccccc23)NC(=O)[C@H](CCCNC(=N)N)NC1=O [cWFW, cyclo[RRRWFW]] (cyclo(FWRRRW)) here?
Answer: Its value is 8.1 µM (≈ 8 µg/mL).

Question: And the “MIC B. spizizenii” value [3]?
Answer: The value was 4.0 µM (≈ 3.95 µg/mL).

Question: What about the “RT (apparent retention time)” value [4] of the same compound?
Answer: Its value is 9 min.
